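48-hour exposure; five concentrations; linearly interpolated endpoints. The concentration for 50% growth inhibition is given as GI50.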 Calls of active or inactive are those of the source. Cut-off read from the data, not from the text of the source: active = GI50 up to about 1.1 µM and inactive = higher.
Experiments:
Test in all cases: NCI tumour cell line growth inhibition, 48 h
KM12 = tested on: KM12
CAKI-1 = tested on: CAKI-1
MDA-MB-435 = tested on: MDA-MB-435
RXF 393 = tested on: RXF 393
T47D = tested on: T47D
NCI/ADR-RES = tested on: NCI/ADR-RES
EKVX = tested on: EKVX
HOP-92 = tested on: HOP-92
Hs-578T = tested on: Hs-578T
HL-60 = tested on: HL-60
MDA-N = tested on: MDA-N
SF-295 = tested on: SF-295
SF-539 = tested on: SF-539
IGROV-1 = tested on: IGROV-1
A498 = tested on: A498
M14 = tested on: M14
UACC-257 = tested on: UACC-257
BT-549 = tested on: BT-549
HOP-18 = tested on: HOP-18
M19-MEL = tested on: M19-MEL

| SMILES | GI50 (KM12) | GI50 (CAKI-1) | GI50 (MDA-MB-435) | GI50 (RXF 393) | GI50 (T47D) | GI50 (NCI/ADR-RES) | GI50 (EKVX) | GI50 (HOP-92) | GI50 (Hs-578T) | GI50 (HL-60) | GI50 (MDA-N) | GI50 (SF-295) | GI50 (SF-539) | GI50 (IGROV-1) | GI50 (A498) | GI50 (M14) | GI50 (UACC-257) | GI50 (BT-549) | GI50 (HOP-18) | GI50 (M19-MEL) |
| --- | --- | --- | --- | --- | --- | --- | --- | --- | --- | --- | --- | --- | --- | --- | --- | --- | --- | --- | --- | --- |
| Cc1cc2oc3c(ccc(=O)n3C)c(=O)c2c(C)c1Cl | 91.4 µM (inactive) | 67.5 µM (inactive) | 28.1 µM (inactive) | 31.2 µM (inactive) | 50.1 µM (inactive) | 72.9 µM (inactive) | 52 µM (inactive) | 50.1 µM (inactive) | 32 µM (inactive) | 37.6 µM (inactive) | 52.8 µM (inactive) | 54.8 µM (inactive) | 23.8 µM (inactive) | 32.1 µM (inactive) | 46.8 µM (inactive) | 28.5 µM (inactive) | – | – | – | – |
| Cc1nc2[nH]ncn2c(=O)c1CCO | – | > 10 µM (inactive) | > 10 µM (inactive) | > 10 µM (inactive) | > 10 µM (inactive) | > 10 µM (inactive) | > 10 µM (inactive) | – | > 10 µM (inactive) | > 10 µM (inactive) | > 10 µM (inactive) | – | > 10 µM (inactive) | > 10 µM (inactive) | > 10 µM (inactive) | > 10 µM (inactive) | – | – | – | – |
| CN(NC(=O)c1cccs1)C1=NCCCN1 | > 100 µM (inactive) | – | > 100 µM (inactive) | > 100 µM (inactive) | > 100 µM (inactive) | > 100 µM (inactive) | 85.9 µM (inactive) | > 100 µM (inactive) | > 100 µM (inactive) | > 100 µM (inactive) | > 100 µM (inactive) | > 100 µM (inactive) | > 100 µM (inactive) | > 100 µM (inactive) | > 100 µM (inactive) | > 100 µM (inactive) | > 100 µM (inactive) | > 100 µM (inactive) | – | – |
| O=C(Nc1cccc2ccccc12)Nn1cnnc1 | > 100 µM (inactive) | > 100 µM (inactive) | > 100 µM (inactive) | – | > 100 µM (inactive) | – | > 100 µM (inactive) | > 100 µM (inactive) | > 100 µM (inactive) | > 100 µM (inactive) | > 100 µM (inactive) | > 100 µM (inactive) | > 100 µM (inactive) | > 100 µM (inactive) | > 100 µM (inactive) | > 100 µM (inactive) | > 100 µM (inactive) | > 100 µM (inactive) | – | – |
| CC(C)c1cccc(C(C)C)c1OS(=O)(=O)NC(=O)OC(C(F)(F)F)C(F)(F)F | 43.7 µM (inactive) | > 100 µM (inactive) | 57.1 µM (inactive) | – | – | 32.7 µM (inactive) | 37.8 µM (inactive) | 21.6 µM (inactive) | > 100 µM (inactive) | 37.6 µM (inactive) | 56.9 µM (inactive) | 25.3 µM (inactive) | 30.6 µM (inactive) | > 100 µM (inactive) | 71.9 µM (inactive) | 19.2 µM (inactive) | 53.7 µM (inactive) | 67.8 µM (inactive) | – | – |
| CCCn1cc2c3c(cccc31)C1C=C(C)CN(C)C1C2 (centres undefined) | 24.2 µM (inactive) | 11.8 µM (inactive) | – | 18.5 µM (inactive) | – | 20.8 µM (inactive) | 18 µM (inactive) | 11.7 µM (inactive) | – | 1.51 µM (inactive) | – | 23.8 µM (inactive) | 25.6 µM (inactive) | 27 µM (inactive) | 13.7 µM (inactive) | – | 7.69 µM (inactive) | – | 13.7 µM (inactive) | – |
| CCOC(=O)/C(=C/c1cn(C(C)=O)c2ccccc12)P(=O)(OC)OC | – | 31.9 µM (inactive) | 36.4 µM (inactive) | – | 13.7 µM (inactive) | 29.2 µM (inactive) | – | 31.1 µM (inactive) | 31 µM (inactive) | 18 µM (inactive) | – | 44.4 µM (inactive) | – | 25.6 µM (inactive) | 15.3 µM (inactive) | 52.4 µM (inactive) | 19.1 µM (inactive) | – | – | – |
| CCCCCCCCCCCC1=NCCN1 | 63.8 µM (inactive) | – | > 100 µM (inactive) | > 100 µM (inactive) | 73.3 µM (inactive) | > 100 µM (inactive) | – | 94 µM (inactive) | 83.9 µM (inactive) | – | > 100 µM (inactive) | 87.7 µM (inactive) | – | – | 0.557 µM (active) | > 100 µM (inactive) | > 100 µM (inactive) | – | – | – |
| CC(=O)/N=C1/N(/C=C2\C(=O)Oc3ccccc3C2=O)C(=O)/C(=C/c2ccc(NC(C)=O)cc2)N1C | > 100 µM (inactive) | > 100 µM (inactive) | > 100 µM (inactive) | > 100 µM (inactive) | > 100 µM (inactive) | > 100 µM (inactive) | > 100 µM (inactive) | – | 44.4 µM (inactive) | > 100 µM (inactive) | > 100 µM (inactive) | > 100 µM (inactive) | > 100 µM (inactive) | > 100 µM (inactive) | > 100 µM (inactive) | > 100 µM (inactive) | > 100 µM (inactive) | – | – | – |
| CCc1c(-c2ccccc2)[nH]c2ccccc2c1=O | 16.4 µM (inactive) | 19.8 µM (inactive) | 46.2 µM (inactive) | 27.1 µM (inactive) | 46.5 µM (inactive) | – | 81.1 µM (inactive) | – | – | > 100 µM (inactive) | 47.5 µM (inactive) | – | 50.5 µM (inactive) | – | 33.4 µM (inactive) | 35.6 µM (inactive) | 64.7 µM (inactive) | 59.4 µM (inactive) | – | – |
| CCP(=O)(CC)C(Cl)(Cl)C(O)C(C)(C)C (centres undefined) | – | > 100 µM (inactive) | > 100 µM (inactive) | – | > 100 µM (inactive) | > 100 µM (inactive) | – | > 100 µM (inactive) | > 100 µM (inactive) | > 10 µM (inactive) | > 100 µM (inactive) | > 100 µM (inactive) | – | > 100 µM (inactive) | > 100 µM (inactive) | > 100 µM (inactive) | > 100 µM (inactive) | – | – | – |
| CCN1C(=O)c2cc(OC)c(OC)cc2C(=O)C12OC(=O)c1cc3c(cc12)OCO3 (centres undefined) | > 100 µM (inactive) | > 100 µM (inactive) | > 100 µM (inactive) | 25.8 µM (inactive) | – | > 100 µM (inactive) | > 100 µM (inactive) | 55.3 µM (inactive) | 36.8 µM (inactive) | – | > 100 µM (inactive) | 68.7 µM (inactive) | 53.2 µM (inactive) | 97.9 µM (inactive) | > 100 µM (inactive) | 97.3 µM (inactive) | > 100 µM (inactive) | > 100 µM (inactive) | – | – |
| C=C1c2nc3ccccc3n2C=C(c2ccccc2)N1c1ccc([N+](=O)[O-])cc1 | 4.14 µM (inactive) | 9.2 µM (inactive) | 5.61 µM (inactive) | 3.01 µM (inactive) | 6.25 µM (inactive) | 7.18 µM (inactive) | 4.85 µM (inactive) | 3.9 µM (inactive) | 3.04 µM (inactive) | 7.01 µM (inactive) | 7.6 µM (inactive) | 3.37 µM (inactive) | 1.05 µM (active) | 4.84 µM (inactive) | 8.38 µM (inactive) | 8.57 µM (inactive) | 15.3 µM (inactive) | 9.16 µM (inactive) | – | – |
| Brc1cccc(Nc2ncnc3sc4c(c23)CCC(Nc2cccc(Br)c2)C4)c1 (centres undefined) | > 100 µM (inactive) | 79.8 µM (inactive) | > 100 µM (inactive) | > 100 µM (inactive) | 6.55 µM (inactive) | > 100 µM (inactive) | > 100 µM (inactive) | 26.2 µM (inactive) | > 100 µM (inactive) | – | > 100 µM (inactive) | > 100 µM (inactive) | – | 71.3 µM (inactive) | – | > 100 µM (inactive) | > 100 µM (inactive) | > 100 µM (inactive) | – | – |
| CCOc1c(/N=N/c2ccccc2Cl)c(-c2ccccc2)nn1C(=S)S | 33 µM (inactive) | 18.7 µM (inactive) | 29 µM (inactive) | 39.9 µM (inactive) | 22.2 µM (inactive) | 33.8 µM (inactive) | 30.9 µM (inactive) | 54 µM (inactive) | 22.2 µM (inactive) | 33.6 µM (inactive) | – | 33.6 µM (inactive) | 14.2 µM (inactive) | 42.6 µM (inactive) | – | 47.9 µM (inactive) | 50.6 µM (inactive) | 35.9 µM (inactive) | – | – |
| OCc1cn(C(c2ccccc2)(c2ccccc2)c2ccccc2)cn1 | – | 91.6 µM (inactive) | > 100 µM (inactive) | – | > 100 µM (inactive) | > 100 µM (inactive) | – | 29.7 µM (inactive) | 33.7 µM (inactive) | > 100 µM (inactive) | > 100 µM (inactive) | 32.3 µM (inactive) | – | > 100 µM (inactive) | – | > 100 µM (inactive) | > 100 µM (inactive) | – | – | – |
| CCCCNC1=C2C(=O)NN=C2CO1 | > 100 µM (inactive) | > 100 µM (inactive) | – | > 100 µM (inactive) | – | – | > 100 µM (inactive) | > 100 µM (inactive) | – | > 100 µM (inactive) | – | > 100 µM (inactive) | > 100 µM (inactive) | > 100 µM (inactive) | > 100 µM (inactive) | > 100 µM (inactive) | > 100 µM (inactive) | – | – | > 100 µM (inactive) |
| COc1cccc(/C=C/C(=O)N2CC(CCl)c3c2cc(N)c2ccccc32)c1 (centres undefined) | 0.00434 µM (active) | 0.000566 µM (active) | 0.00319 µM (active) | 0.00132 µM (active) | 0.0034 µM (active) | 0.0731 µM (active) | 0.0142 µM (active) | 0.0993 µM (active) | 0.00968 µM (active) | < 0.01 µM (active) | 0.0143 µM (active) | 0.00114 µM (active) | – | – | 0.00665 µM (active) | 0.00957 µM (active) | 0.0193 µM (active) | 0.0122 µM (active) | – | – |
| Cc1ccc(S(=O)(=O)N2CCCSCC2)cc1 | > 100 µM (inactive) | – | 95.7 µM (inactive) | 62.7 µM (inactive) | > 100 µM (inactive) | > 100 µM (inactive) | – | > 100 µM (inactive) | 72.4 µM (inactive) | – | > 100 µM (inactive) | > 100 µM (inactive) | – | – | > 100 µM (inactive) | – | > 100 µM (inactive) | – | – | – |
